In brackets after ≈: the same amount, converted by molar mass.

The subject of assay [1] is gram-negative organisms. The experiment in a line: Inhibition, broth dilution (Example I). Format: cell-based. The protocol:
(§1) In order to establish comparative bactericidal and fungicidal results with homologous fatty acids, a series of experiments was performed with thirty straight-chain fatty acids and derivatives thereof. Eight different gram-negative and twelve different gram-positive organisms, representing a very broad spectrum of organisms, were used in these experiments including the fungus Candida (a yeast). Additionally, fatty acids were chosen to show the effects of saturation versus unsaturation, in the fatty acid claim. Standard solutions of the fatty acids and their derivatives were prepared by first dissolving the weighed compounds in 1 to 2 ml of 95% ethanol and immediately pouring this solution into 200 ml of Tripticase Soy Broth. These lipid compounds which are insoluble in water and broth precipitated into very small crystals or droplets. The tubes containing the suspension were warmed to approximately 70° C and were then placed in an ultrasonic tank for further solubilization of the lipid derivatives.
(§2) Standard solutions (or suspensions) at 1,000 μg/ml were twofold serially diluted with additional broth to a concentration of 125 μg/ml. A 4-ml amount of each dilution was then quickly, and with constant agitation, dispensed into appropriately labeled screw-capped glass tubes (16 by 125 mm). The tubes were sterilized with steam at 15 psi for 15 minutes. […]
Background: In broth dilution the organism is exposed to a series of concentrations in liquid medium.

Assay [2] concerns gram-positive organisms. Nature of the assay: Inhibition, broth dilution (Example I). The conditions noted are these: read-out: Inhibitory concentration. Format: cell-based. The protocol:
as §1, §2

The test system of assay [3] is Streptococcus Group A. Nature of the assay: MIC, broth dilution (Examples I/II). The format is cell-based, beta-hemolytic streptococci Group A. Particulars: Group A Strep; read-out: Inhibitory concentration. In a few lines:
(§3)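 Fatty acids and derivatives were dispersed from ethanol (sucrose esters from methanol) into Trypticase Soy Broth, warmed and sonicated, then twofold diluted from 1,000 to 125 μg/ml and steam-sterilized. Tubes received ~10^7–10^9 organisms/ml broth culture and were incubated at 35–36° C. MIC is the lowest concentration without visible growth versus controls, expressed in μmol/ml.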

Assay [4] relates to Nocardia asteroides. The experiment in a line: MIC, broth dilution (Examples I/II). Format: cell-based, Nocardia asteroids (3308). Particulars: Nocardia asteroides; read-out: Inhibitory concentration. The essentials:
as §3

The test system of assay [5] is S. aureus. Nature of the assay: MIC, broth dilution (Examples I/II). Format: cell-based, Staphylococcus aureus. The conditions noted are these: Staphylococcus aureus; S. aureus; read-out: Inhibitory concentration. The protocol:
as §1
(§4) Standard solutions (or suspensions) at 1,000 μg/ml were twofold serially diluted with additional broth to a concentration of 125 μg/ml. A 4-ml amount of each dilution was then quickly, and with constant agitation, dispensed into appropriately labeled screw-capped glass tubes (16 by 125 mm). The tubes were sterilized with steam at 15 psi for 15 minutes. After sterilization, all tubes were cooled and incubated overnight at 35° C to insure sterility.
(§5) All compounds were compared on a molar (micromoles/milliliter) rather than on a mass basis. In the following lists of organisms used, those followed by a parenthetical number are registered with the American Type Culture Collection (ATCC); the remainder were isolates from Providence Hospital or Northland Laboratory.
One drop (0.04 ± 0.01 ml) of an 18-hr broth culture containing 10^7 and 10^9 organisms/ml was added to each dilution of the test compound, as well as to a tube of plain broth which served as the positive control. […]

Assay [6] deals with Streptococcus Group D. Nature of the assay: MIC, broth dilution (Examples I/II). Format: cell-based. The conditions noted are these: Group D Strep. The protocol: as §1, §4, §5
One drop (0.04 ± 0.01 ml) of an 18-hr broth culture containing 10^7 and 10^9 organisms/ml was added to each dilution of the test compound, as well as to a tube of plain broth which served as the positive control. After inoculation, the contents of each tube were well mixed, and the tubes were incubated at 35° C in a 5% carbon dioxide + […] atmosphere.
The MIC is defined as the lowest concentration of compound at which no […] evidence of growth was observed when turbidity of the inoculated broth dilutions was compared with control tubes. […] Only a one-tube difference between the bactericidal and bacteriostatic concentrations was normally observed.
(§6) Standard solutions (1000 μg/ml) of three fatty acids and polyglycerol esters thereof were prepared as described in Example I. Also sucrose esters were prepared by transferring the weighed compounds (0.2 gm. dissolved in 1 ml absolute methanol) into 200 ml of sterile Trypticase Soy Broth (TSB). These standard solutions (1000 μg/ml) were twofold serially diluted with additional sterile broth to a concentration of 125 μg/ml. A 3.8 aliquot of each dilution was asceptically delivered into sterile screw-capped culture tubes. All tubes were incubated overnight at 36° C to insure sterility. The microorganisms used in this example were the same as those used in Example I.
(§7) The inoculum, 0.05 ml of an 13-24 hour TSB culture (approximately 10^9 organisms/ml) was asceptically delivered into all dilutions of the compounds, mixed well, and incubated at 36° C. A tube of inoculated broth without the compound served as a positive control and an uninoculated set of dilutions incubated along with the test dilutions, served as a negative control.
In those cases in which the test compound itself caused turbidity, an aliquot (0.015 ml) of the mixed broth was inoculated onto an agar plate and incubated at 36° C for examination, as described in Example I. The control procedure of Example I was also repeated. The lauric, capric, and oleic acids were used as internal controls and for comparison to Example I. The minimal inhibitory concentrations (μmole/ml) for the compounds studied are given in Tables 7 and 8.

Assay [7] concerns Saccharomyces cerevisiae. The experiment in a line: MIC, broth dilution (Example II). Particulars: 18 h, read-out: Inhibitory concentration. Format: cell-based. The protocol:
as §6, §7
In those cases in which the test compound itself caused turbidity, an aliquot (0.015 ml) of the mixed broth was inoculated onto an agar plate and incubated at 36° C for examination, as described in Example I. The control procedure of Example I was also repeated. […]

The test system of assay [8] is E. coli. Nature of the assay: MIC, broth dilution (Example II). The format is cell-based, Escherichia coli. The protocol: Proteus vulgaris, P. mirabilis (14273), P. rettgeri (9250), Escherichia coli, Serratia marcescens (13880), Enterobacter-Klebsiella, Pseudomonas aeruginosa (10145), and Salmonella typhimurium.
as §6
The inoculum, 0.05 ml of an 13-24 hour TSB culture (approximately 10^9 organisms/ml) was asceptically delivered into all dilutions of the compounds, mixed well, and incubated at 36° C. A tube of inoculated broth without the compound served as a positive control and an uninoculated set of dilutions incubated along with the test dilutions, served as a negative control. […]

Regarding `CCCCCCCCCCCCOS(=O)(=O)[O-].[Na+]` [sodium lauryl sulfate], in assay [1], the Inhibition in words entry was “non-inhibitory”. The MIC in assay [2] is 3470 µM.
For `CCCCCCCCCCC(O)C(=O)OC` (stereo not drawn) [Methyl, α-hydroxylaurate], the MIC in assay [3] came out at 540 µM (≈ 124 µg/mL); in assay [4], 4340 µM (≈ 1000 µg/mL); in assay [5] it was 540 µM (≈ 124 µg/mL); in assay [7], 540 µM (≈ 124 µg/mL). The Inhibition in words result in assay [6] and in assay [8] was “Neither compound was inhibitory” throughout.

(Values after US4067997A, “Synergistic microbecidal composition and method” (priority 1976, dated 1978).)
